This note sets out measurements from publication PMC6973051, “Proline‐Rich Peptides with Improved Antimicrobial Activity against E. coli, K. pneumoniae, and A. baumannii” (Chemmedchem, 2019).

Ends that are not written are not given here.

One assay deals with E. coli BW25113. Type of assay: cell-based, Escherichia coli. To be noted: BW25113, 18 h. From the text: The following bacterial strains were used: Escherichia coli BW25113, E. coli BW25113ΔsbmA (JW0368‐1, KEIO collection21); Acinetobacter baumannii ATCC 19606, Klebsiella pneumoniae ATCC 700603, Pseudomonas aeruginosa ATCC 27853 and Staphylococcus aureus ATCC 25923. The pathogenic E. coli EURL‐VTEC A07, E. coli EURL‐VTEC C07, E. coli SSI‐NN14, E. coli EA22, E. coli SSI‐OO15 and E. coli C679‐12 strains were generously provided by the European Union Reference Laboratory for E. coli, Department of Food Safety, Nutrition and Veterinary Public Health, Istituto Superiore di Sanità, Rome, Italy. All the strains were grown overnight in Müller‐Hinton broth (MHB, Difco) at 37 °C, with shaking (140 rpm). The day after, the overnight bacterial cultures were diluted approx. 1 : 40 in fresh MHB and incubated at 37 °C with shaking (140 rpm) until an OD600nm of ≈0.3 was reached. E. coli BW25113ΔsbmA was grown in the presence of 50 μg mL^−1 kanamycin.
Peptides were diluted in 100 μL of MHB to the concentration of 128 μM, dispensed in the first wells of a 96‐wells microtiter plate (round‐bottom) and serially two‐fold diluted with MHB into successive wells in a final volume of 50 μl. Subsequently, 50 μL of a bacterial suspension (5×10^5 CFU mL^−1) were added to each well, halving the final concentration of bacteria and peptides. Bacteria were added to MHB only as bacterial growth‐control, whereas 100 μl of MHB were used to check the medium sterility. The plate was incubated overnight at 37 °C (≈18 hours) and sealed with parafilm to minimise evaporation. The MIC was calculated as the first clear well without bacterial growth. If barely detectable growth was present, the OD600nm of the plate was measured by a multiplate reader Tecan (software Sunrise). The MIC was then calculated as the well whose OD620 was≤1 % of that of the untreated growth control.
AFRPPIRRPPIRPPFYPG-NH2 [R1A] gave an MIC of 48 µM.

Consider EFRPPIRRPPIRPPFYPG-NH2 [R1E], for which the MIC was above 64 µM.

The substance FFRPPIRRPPIRPPFYPG-NH2 [R1F] returned an MIC of 64 µM.

The substance GFRPPIRRPPIRPPFYPG-NH2 [R1G] had a minimal inhibitory concentration (MIC) of 32 µM.

PFRPPIRRPPIRPPFYPG-NH2 [R1P] came in with an MIC of 64 µM.

Consider “RARPPIRRPPIRPPFYPG-NH2 (C-terminus assumed) [F2A]”, for which the MIC stood at 32 µM.

Consider “RERPPIRRPPIRPPFYPG-NH2 (C-terminus assumed) [F2E]”, for which the MIC was above 64 µM.

RFAPPIRRPPIRPPFYPG-NH2 [R3A] showed an MIC of 64 µM.

For the substance RFEPPIRRPPIRPPFYPG-NH2 [R3E], the MIC is above 64 µM.

As for RFFPPIRRPPIRPPFYPG-NH2 [R3F], the MIC was found to be 64 µM.

RFGPPIRRPPIRPPFYPG-NH2 [R3G] had an MIC of 64 µM.

In turn, RFPPPIRRPPIRPPFYPG-NH2 [R3P] returned a minimum inhibitory concentration (MIC) of 64 µM.

The substance “RFRAPIRRPPIRPPFYPG-NH2 (C-terminus assumed) [P4A]” registered an MIC of 24 µM.

Regarding “RFREPIRRPPIRPPFYPG-NH2 (C-terminus assumed) [P4E]”, the MIC turned out to be 64 µM.

Consider “RFRFPIRRPPIRPPFYPG-NH2 (C-terminus assumed) [P4F]”, for which the minimal inhibitory concentration (MIC) amounted to 8 µM.

With “RFRGPIRRPPIRPPFYPG-NH2 (C-terminus assumed) [P4G]”, the MIC is 8 µM.

The substance “RFRPAIRRPPIRPPFYPG-NH2 (C-terminus assumed) [P5A]” had an MIC of 64 µM.

“RFRPEIRRPPIRPPFYPG-NH2 (C-terminus assumed) [P5E]” displayed an MIC above 64 µM.

Consider “RFRPFIRRPPIRPPFYPG-NH2 (C-terminus assumed) [P5F]”, for which the MIC came to 32 µM.

Substance “RFRPGIRRPPIRPPFYPG-NH2 (C-terminus assumed) [P5G]” showed a minimum inhibitory concentration (MIC) above 64 µM.

Consider “RFRPPARRPPIRPPFYPG-NH2 (C-terminus assumed) [I6A]”, for which the minimal inhibitory concentration (MIC) was found to be 64 µM.

In turn, “RFRPPERRPPIRPPFYPG-NH2 (C-terminus assumed) [I6E]” registered an MIC above 64 µM.

“RFRPPFRRPPIRPPFYPG-NH2 (C-terminus assumed) [I6F]” showed a minimal inhibitory concentration (MIC) of 16 µM.

“RFRPPGRRPPIRPPFYPG-NH2 (C-terminus assumed) [I6G]” registered an MIC above 64 µM.

Consider RFRPPIARPPIRPPFYPG-NH2 [R7A], for which the minimal inhibitory concentration (MIC) is above 64 µM.

For the substance RFRPPIERPPIRPPFYPG-NH2 [R7E], the MIC was above 64 µM.

RFRPPIFRPPIRPPFYPG-NH2 [R7F] yielded an MIC of 32 µM.

The substance RFRPPIGRPPIRPPFYPG-NH2 [R7G] registered a minimal inhibitory concentration (MIC) above 64 µM.

In turn, RFRPPIPRPPIRPPFYPG-NH2 [R7P] yielded a minimum inhibitory concentration (MIC) above 64 µM.

Substance RFRPPIRAPPIRPPFYPG-NH2 [R8A] had a minimal inhibitory concentration (MIC) above 64 µM.

Substance RFRPPIREPPIRPPFYPG-NH2 [R8E] yielded a minimal inhibitory concentration (MIC) above 64 µM.

The substance RFRPPIRFPPIRPPFYPG-NH2 [R8F] registered a minimum inhibitory concentration (MIC) above 64 µM.

In the case of RFRPPIRGPPIRPPFYPG-NH2 [R8G], the minimum inhibitory concentration (MIC) is above 64 µM.

Take RFRPPIRPPPIRPPFYPG-NH2 [R8P]: the minimum inhibitory concentration (MIC) is above 64 µM.

“RFRPPIRRAPIRPPFYPG-NH2 (C-terminus assumed) [P9A]” gave an MIC above 64 µM.

In turn, “RFRPPIRREPIRPPFYPG-NH2 (C-terminus assumed) [P9E]” yielded an MIC above 64 µM.

In turn, “RFRPPIRRFPIRPPFYPG-NH2 (C-terminus assumed) [P9F]” returned an MIC of 16 µM.

Substance “RFRPPIRRGPIRPPFYPG-NH2 (C-terminus assumed) [P9G]” displayed a minimum inhibitory concentration (MIC) above 64 µM.

In turn, “RFRPPIRRPAIRPPFYPG-NH2 (C-terminus assumed) [P10A]” showed an MIC above 64 µM.

Regarding “RFRPPIRRPEIRPPFYPG-NH2 (C-terminus assumed) [P10E]”, the minimal inhibitory concentration (MIC) was above 64 µM.

Consider RFRPPIRRPFIRPPFYPG-NH2 [P10F], for which the minimum inhibitory concentration (MIC) is 64 µM.

Substance RFRPPIRRPGIRPPFYPG-NH2 [P10G] had an MIC above 64 µM.

In turn, “RFRPPIRRPPARPPFYPG-NH2 (C-terminus assumed) [I11A]” registered an MIC above 64 µM.

Consider “RFRPPIRRPPERPPFYPG-NH2 (C-terminus assumed) [I11E]”, for which the MIC is above 64 µM.

Turning to “RFRPPIRRPPFRPPFYPG-NH2 (C-terminus assumed) [I11F]”, the MIC came to 32 µM.

As for “RFRPPIRRPPGRPPFYPG-NH2 (C-terminus assumed) [I11G]”, the minimum inhibitory concentration (MIC) was above 64 µM.

RFRPPIRRPPIAPPFYPG-NH2 [R12A] yielded a minimal inhibitory concentration (MIC) above 64 µM.

Regarding RFRPPIRRPPIEPPFYPG-NH2 [R12E], the minimum inhibitory concentration (MIC) was above 64 µM.

For the substance RFRPPIRRPPIFPPFYPG-NH2 [R12F], the minimum inhibitory concentration (MIC) was above 64 µM.

For RFRPPIRRPPIGPPFYPG-NH2 [R12G], the MIC was above 64 µM.

For the substance RFRPPIRRPPIPPPFYPG-NH2 [R12P], the minimum inhibitory concentration (MIC) is above 64 µM.

On to RFRPPIRRPPIRAPFYPG-NH2 [P13A], for which the minimal inhibitory concentration (MIC) was above 64 µM.

In turn, RFRPPIRRPPIREPFYPG-NH2 [P13E] yielded an MIC above 64 µM.

Turning to RFRPPIRRPPIRFPFYPG-NH2 [P13F], the minimum inhibitory concentration (MIC) came to 32 µM.

In the case of RFRPPIRRPPIRGPFYPG-NH2 [P13G], the minimum inhibitory concentration (MIC) is above 64 µM.

The substance RFRPPIRRPPIRPAFYPG-NH2 [P14A] had an MIC above 64 µM.

For RFRPPIRRPPIRPEFYPG-NH2 [P14E], the minimal inhibitory concentration (MIC) was above 64 µM.

For the substance RFRPPIRRPPIRPFFYPG-NH2 [P14F], the MIC is 32 µM.

Consider RFRPPIRRPPIRPGFYPG-NH2 [P14G], for which the minimal inhibitory concentration (MIC) was above 64 µM.

As to “RFRPPIRRPPIRPPAYPG-NH2 (C-terminus assumed) [F15A]”, the MIC was 64 µM.

For “RFRPPIRRPPIRPPEYPG-NH2 (C-terminus assumed) [F15E]”, the MIC is above 64 µM.

Substance RFRPPIRRPPIRPPFAPG-NH2 [Y16A] had an MIC of 64 µM.

In turn, RFRPPIRRPPIRPPFEPG-NH2 [Y16E] registered a minimum inhibitory concentration (MIC) above 64 µM.

RFRPPIRRPPIRPPFFPG-NH2 [Y16F]: the MIC came out at 16 µM.

In turn, RFRPPIRRPPIRPPFGPG-NH2 [Y16G] gave a minimal inhibitory concentration (MIC) above 64 µM.

RFRPPIRRPPIRPPFPPG-NH2 [Y16P] gave an MIC of 64 µM.

RFRPPIRRPPIRPPFRPG-NH2 [Y16R] yielded a minimum inhibitory concentration (MIC) of 16 µM.

RFRPPIRRPPIRPPFSPG-NH2 [Y16S] returned an MIC above 64 µM.

On to RFRPPIRRPPIRPPFYAG-NH2 [P17A], for which the MIC came out at 16 µM.

The substance RFRPPIRRPPIRPPFYEG-NH2 [P17E] displayed an MIC above 64 µM.

Consider RFRPPIRRPPIRPPFYFG-NH2 [P17F], for which the MIC was 16 µM.

Turning to RFRPPIRRPPIRPPFYGG-NH2 [P17G], the MIC was 16 µM.

Regarding “RFRPPIRRPPIRPPFYPG-NH2 [wt (SPOT form), reference compound]”, the MIC was found to be 32 µM.

Take “RFRPPIRRPPIRPPFYRG-NH2 [258 (SPOT form)]”: the minimum inhibitory concentration (MIC) was determined as 8 µM.

As to RFRPPIRRPPIRPPFYSG-NH2 [P17S], the minimal inhibitory concentration (MIC) is 16 µM.

Substance “RFRPPIRRPPIRPPGYPG-NH2 (C-terminus assumed) [F15G]” returned an MIC of 32 µM.

The assay is the same for the next values; noted with them: single-substitution library by SPOT‐synthesis (unpurified); MHB, ≈18 hours, 37 °C; median of n≥3.
For the substance “RFRPPIRRPPIRPPFYPG-NH2 [wt (SPOT form), reference compound]”, the minimum inhibitory concentration (MIC) stood at 16 µM.
